# Numbered stars: 1 amine (or outer) side, 2 acyl side, 3 side chain; on linkers, the order of the positions; unused ones are H or OH. Bridge positions count the residues as written; N and C are the ends. Square brackets hold non-standard residues; d marks the D form. Peptide text beside a SMILES is read from it. I, II: the chains in the order shown. Actinocin(9to1) = Cc1c2oc3c(C)ccc(C(=O)[*:1])c3nc-2c(C(=O)[*:2])c(N)c1=O; NMeV = CN[C@H](C(=O)O)C(C)C; Sar = CNCC(=O)O
# Experiments:
# [1] = system: HaCaT cells; assay: Migration assay (scratch assay, model for wound healing); format: cell-based, human
# Method: Using a human keratinocyte cell line (HaCaT) in a Scratch-Assay as a model for wound healing, different model-predicted points of interference were tested. First it was confirmed that HGF-induced migration predominantly depends on a transcriptional response.
# Immortalized human keratinocytes (HaCaT cells) were cultured in monoculture with DMEM (10% FCS, 100 U/ml penicillin, 100 µg/ml streptomycin). Subsequently, the cell monolayer was damaged with a 'scratch' using a pipette tip and cells were treated with 5 µg/ml mitomycin c (Sigma-Aldrich) for three hours before stimulation. Cells were stimulated at indicated time points and periods with cytokines and/or inhibitors: 10 ng/ml HGF, (R&D Systems), 1 ng/ml EGF (R&D Systems), 150 nM Tyrphostin AG1473 (Biomol) (EGF-R inhibitor) or 1 µM GW 2974 (Sigma) (EGF-R inhibitor), […] Meloxicam (Biomol) (PTGS-2 inhibitor), 0.5 µM H-89 (Calbiochem) (PKA inhibitor) or 10 µM Myristoylated PKI (14-22) amide, cell-permeable PKA inhibitor (Biomol), 200 µM 8-(4-Chlorophenylthio)adenosine 3',5'-cyclic monophosphate sodium salt (Sigma) (PKA activator) and incubated for further 30 hours. Relative migratory activity was determined by measuring migration distance during culture using standard protocols.
# [2] = system: HaCaT cells; assay: MTT-viability assay; format: cell-based, human; settings: under Actinomycin D treatment; data not shown
smiles,measurement,setting,value
"Nc1ncnc2c1nc(Sc1ccc(Cl)cc1)n2[C@@H]1O[C@@H]2COP(=O)([O-])O[C@H]2[C@H]1O.[Na+] [8-(4-Chlorophenylthio)adenosine 3',5'-cyclic monophosphate sodium salt]",HGF-induced HaCaT migration,"[1]; Fig. 6C, 200 µM added at different time points with respect to HGF pulse stimulation (10 ng/ml for 1.5h)",strongly decreases
"Cc1c2oc3c(C)ccc(C(=O)N[C@@H]4C(=O)N[C@H](C(C)C)C(=O)N5CCC[C@H]5C(=O)N(C)CC(=O)N(C)[C@@H](C(C)C)C(=O)O[C@@H]4C)c3nc-2c(C(=O)N[C@@H]2C(=O)N[C@H](C(C)C)C(=O)N3CCC[C@H]3C(=O)N(C)CC(=O)N(C)[C@@H](C(C)C)C(=O)O[C@@H]2C)c(N)c1=O [Actimocyin D, Actinomycin D] (I: T[dV]P[Sar][NMeV] / II: T[dV]P[Sar][NMeV]; ester I:1-I:C, II:1-II:C; linker I:N-II:N via Actinocin(9to1))",migratory response to HGF,"[1]; Fig. 2B, prolonged incubation (30 h) with 10 ng/ml recombinant human HGF plus Actinomycin D 5 µg/ml",abolished any migratory response to HGF
same,cell viability,[2],still viable
CN(C)c1cc2c(Nc3ccc4c(cnn4Cc4ccccc4)c3)ncnc2cn1 [GW2974],HGF-induced migration,"[1]; Fig. 3G, 1 µM GW 2974 simultaneous to 10 ng/ml HGF, 30 h",abolish HGF-induced migration
O=S(=O)(NCCNC/C=C/c1ccc(Br)cc1)c1cccc2cnccc12 [H-89],HGF-induced migration,"[1]; Fig. 6C, 0.5 µM at the time of HGF stimulation",slightly increases migration
same,development of a migratory response,"[1]; Fig. 6C, 0.5 µM directly after HGF pulse stimulation (1.5 h)",does not alter development of a migratory response
same,further migration,"[1]; Fig. 6C, PKA inhibition after 22 h, when cells already developed a full migratory response",delays further migration

# — patent EP2128622A1, “Means and methods for diagnosing metastasising potentials of tumor cells” (DKFZ Deutsches Krebsforschungszentrum, priority 2008, dated 2009)
